From paper PMC8204306 (ACS Infectious Diseases, 2021)

Biological target: EchA19 (Mycobacterium tuberculosis, UniProt O53561)
Sequence (O53561 whole entry): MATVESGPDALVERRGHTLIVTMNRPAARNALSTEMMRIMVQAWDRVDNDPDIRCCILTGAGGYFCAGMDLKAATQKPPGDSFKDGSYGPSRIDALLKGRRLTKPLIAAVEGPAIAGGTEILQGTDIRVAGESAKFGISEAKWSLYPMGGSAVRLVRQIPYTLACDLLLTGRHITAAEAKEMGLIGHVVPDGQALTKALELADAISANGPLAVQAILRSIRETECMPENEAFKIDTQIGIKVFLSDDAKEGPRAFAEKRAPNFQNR

C[C@H](/C=C/C(=O)SCCNC(=O)CCNC(=O)[C@H](O)C(C)(C)COP(=O)(O)OP(=O)(O)OC[C@H]1O[C@@H](n2cnc3c(N)ncnc32)[C@H](O)[C@@H]1OP(=O)(O)O)[C@H]1CC[C@H]2[C@@H]3CCC4=CC(=O)CC[C@]4(C)[C@H]3CC[C@]12C [3-OCDO-CoA]
hydration product identified by MALDI MS and 1H NMR: both EchA19 and ChsH3 performed the hydration reaction on 3-OCDO-CoA
